# Measurements: publication PMC3833878, “In Silico Molecular Comparisons of C. elegans and Mammalian Pharmacology Identify Distinct Targets That Regulate Feeding” (PLoS Biology, 2013)
# Columns and labels:
# PPAR-γ = target: T1, PPAR-γ (Homo sapiens, UniProt P37231); assay: Radioligand binding assay, 3H-Rosiglitazone binding to PPAR-γ (CEREP)
# T1 construct: CEREP, Inc. (assay run by the contract laboratory)
# Description: (§1) Tachykinin, ghrelin, and calcium-sensing receptor activity were measured using a cell-based Ca flux assay by Multispan, Inc. (Hayward, California). Cholescystokinin A and B receptors were assayed for effects on cAMP production, and nicotinic acid receptor activity was measured in a cell-based assay of forskolin-stimulated cAMP production by Multispan, Inc. […], PP2A phosphatase activity assays were performed by CEREP (Celle l'Evescault, France) using PP2A from human erythrocytes. Phospholipase C from Bacillus cereus was assayed by CEREP, Inc. using glycero-phosphatidyl ethanolamine as a substrate, monitoring diacyl glycerol production. Radioligand binding assays for PPAR-α, γ, δ and the androgen receptor were performed by CEREP, Inc. CARNA Biosciences (Kobe, Japan) performed in vitro kinase activity assays using recombinant catalytic domains and measured phosphorylation of an Src-derived peptide for Flt-3 and phosphatidyl inositol for PI3KCA. Radioligand binding assays for the oxytocin receptor, D4 dopamine receptor, cannabinoid CB2 receptor, and angiotensin type I and II receptors were performed as described previously, as were cell-based activity assays for mGluR 1a, 2, 4, 5, 6, and 8 [60]–[62].
# Supplementary file pbio.1001712.s003.tif: Figure S3 Dose-response relationships for compounds that bind nuclear hormone receptors. […]
# PI3K p110α = target: T2, PI3K p110α (Homo sapiens, UniProt P42336); assay: In vitro kinase activity assay, recombinant PI3KCA, phosphatidylinositol phosphorylation (CARNA); type: biochemical; conditions: marked with footnote d in Figure 2; 50 µM ATP, 5 h
# T2 construct: full-length recombinant human PI3KCA; purchased CARNA Biosciences (Kobe, Japan)
# Description: as §1, with “Radioligand binding assays for the oxytocin receptor, D4 dopamine receptor, cannabinoid CB2 receptor, and angiotensin type I and II receptors were performed as described previously, as were cell-based activity assays for mGluR 1a, 2, 4, 5, 6, and 8 [60]–[62].” left out
# (§2) Supplementary file pbio.1001712.s002.tif: Figure S2 Dose-dependent inhibitory activity for compounds predicted by SEA to inhibit kinases. (A–B) Varying concentrations of J6 and L10 were incubated with full-length recombinant human PI3KCA and ATP (50 µM) for 5 h and the phosphorylation level of the substrate phosphatidylinositol was measured. […]
# dopamine receptor D4 = dopamine receptor D4 (Homo sapiens, UniProt P21917); assay: Radioligand binding assay, 3H-risperidone binding to the dopamine D4 receptor
# Description: as §1
# (§3) Supplementary file pbio.1001712.s001.tif: Figure S1 Dose-response measurements that validate SEA predictions for GPCRs. […]
# androgen receptor = androgen receptor (Homo sapiens, UniProt P10275); assay: Radioligand binding assay, 3H-Mibolerone binding to the androgen receptor (CEREP)
# Description: as §1, with “[60]-[62]. Supplementary file pbio.1001712.s003.tif: Figure S3 Dose-response relationships for compounds that bind nuclear hormone receptors. […]” for “[60]–[62].”
# MGLUR1a = target: T3, MGLUR1a (Homo sapiens, UniProt Q13255); assay: Cell-based mGluR activity assay; conditions: 10 µM B16
# T3 construct: expressed in transfected cells
# Description: as §1
# (§4) Table S2. Activity of 10 µM B16 on human metabotropic glutamate receptors.
# (§5) ^a Data are normalized to the maximum response of cells treated with 1 mM glutamate or 0.1 mM AP4 alone.
# (§6) ^b Percent difference in maximum activity of cells treated with glutamate or AP4 with B16 vehicle versus concurrent treatment with 10 µM B16.
# MGLUR5 = target: T4, MGLUR5 (Homo sapiens, UniProt P41594); assay: Cell-based mGluR activity assay
# T4 construct: expressed in transfected cells
# Description: as §1, §4, §5, §6
# MGLUR6 = target: T5, MGLUR6 (Homo sapiens, UniProt O15303); assay: Cell-based mGluR activity assay; conditions: 10 µM B16
# T5 construct: expressed in transfected cells
# Description: as §1, §4, §5, §6
# MGLUR4 = target: T6, MGLUR4 (Homo sapiens, UniProt Q14833); assay: Cell-based mGluR activity assay; conditions: 10 µM B16
# T6 construct: expressed in transfected cells
# Description: as §1, §4, §5, §6
# MGLUR2 = target: T7, MGLUR2 (Homo sapiens, UniProt Q14416); assay: Cell-based mGluR activity assay; conditions: 10 µM B16
# T7 construct: expressed in transfected cells
# Description: as §1, §4, §5, §6
# wild-type C. elegans = assay: Pharyngeal pumping assay; type: in vivo; conditions: for increase in pharyngeal pumping / exposure time after which the feeding elevating effect was notable: 10 µM; for increase in pharyngeal pumping: cultured 3 d from L1, long-term video (60 s) and short-term manual (10 s) measurements; for exposure time after which the feeding elevating effect was notable: naïve day 1 gravid adults; for effect on the pharyngeal pumping rate: 10 µM versus 0.1% DMSO; for EC50: Caenorhabditis elegans, read-out: EC50 of the dose-dependent increase in the pharyngeal pumping rate
# Description: (§7) Compounds at 1,000× stock concentrations (0.1–10 mM) in DMSO or an equal volume of DMSO were diluted in a suspension of E. coli OP-50 (100 µl of a 3× concentrated overnight culture in LB broth) and absorbed as a single drop onto 3.5 cm plates containing 2.5 ml of NGM agar forming a well-defined lawn of bacteria. For developmental exposures, 20–30 synchronized first larval stage C. elegans derived from alkaline hypochlorite treatment of gravid adults were applied to the preseeded plates and cultured until assay at mid-L4 stage (2 d, 20°C) or as day 1 gravid adults (3 d, 20°C). For naïve adult exposures, synchronized first larval stage animals were cultured on NGM-agar plates seeded with E. coli OP-50 for 3 d at 20°C, then transferred to assay plates, and pumping was assayed 1 to 16 h later. Comparisons between vehicle-treated and compound-treated animals were always performed between animals at the same developmental stage and same exposure time. Pharyngeal pumping was counted by live observation at 115–200× magnification using a stereo microscope and recorded at 10 s intervals using a manually controlled digital cell counter. Alternatively, C. elegans pumping was recorded for longer intervals (30–60 s) using bright-field time-lapse microscopy at 120× magnification with a 20 images per second acquisition rate. The resulting movies were analyzed manually at a playback rate of 10 images per second.
# (§8) Significance was determined by one-way ANOVA applying a Dunnett's posttest when comparing multiple treatments to a single control and a Bonferroni posttest when comparing the more than two treatments against one another. For pairwise nonrepeated measured comparisons, a student's t test was used. To express data as a percentage of control, the pumping rates of compound-treated animals were divided by the mean pumping rate of the DMSO-treated wild-type animals measured in the same experiment, unless indicated otherwise. Error bars on the control samples indicate the variation around that mean, which is utilized in all statistical calculations.
# mglur-8 = target: T8, mglur-8 (Rattus norvegicus, UniProt P70579); assay: Cell-based mGluR-8 activity assay, CHO cells stimulated with 1 µM L-AP4, concentration response
# T8 construct: expressed in transfected cells; host or cells: CHO cells
# Description: as §1, §3
# C. elegans = system: C. elegans; parameters: method as in earlier work; conditions: earlier phenotypic screen ref 11; cited from earlier work
# MGLUR8 = assay: Cell-based mGluR activity assay; parameters: species or system human; conditions: 10 µM B16
# Description: as §1
# Table S2. Activity of 10 µM B16 on human metabotropic glutamate receptors. […]
# [1] = system: mgl-2(tm355) mutant C. elegans; assay: Pharyngeal pumping assay, compound on high-feeding mutant; type: in vivo; conditions: to C. elegans mgl-2 (F45H11.4), homolog of human mGluR-8
# Description: as §7, §8
# (§9) The pumping rates are expressed as a percentage of the mutant’s pumping rate on DMSO, the vehicle control. p-values were calculated relative to DMSO treatment of each mutant by one-way ANOVA using Dunnett’s multiple comparison test.
# flt-3 receptor (CD135) = target: T9, flt-3 receptor (CD135) (Homo sapiens, UniProt P36888); assay: In vitro kinase activity assay, recombinant Flt-3 receptor catalytic domain, srctide phosphorylation (CARNA); type: biochemical
# T9 construct: Flt-3 receptor catalytic domain (amino acids 564–993); purchased CARNA Biosciences (Kobe, Japan)
# Description: as §1, with “Radioligand binding assays for the oxytocin receptor, D4 dopamine receptor, cannabinoid CB2 receptor, and angiotensin type I and II receptors were performed as described previously, as were cell-based activity assays for mGluR 1a, 2, 4, 5, 6, and 8 [60]–[62].” left out
# as §2
# [2] = system: ver-3(ok891) mutant C. elegans; assay: Pharyngeal pumping assay, compound on high-feeding mutant; type: in vivo; conditions: to C. elegans ver-3 (F59F3.1), homolog of human Flt-3 receptor
# Description: as §7, §8, §9
# oxytocin receptor = oxytocin receptor (Homo sapiens, UniProt P30559); assay: Radioligand binding assay, 3H-oxytocin binding to the oxytocin receptor
# Description: as §1, §3
# [3] = system: gnrr-1(ok238) mutant C. elegans; assay: Pharyngeal pumping assay, compound on high-feeding mutant; type: in vivo; conditions: to C. elegans gnrr-1 (F54D7.3), homolog of human Oxtr
# Description: as §7, §8, §9
# [4] = normalized to the maximum response of cells treated with 1 mM glutamate or 0.1 mM AP4 alone
# [5] = percent difference in maximum activity of cells treated with glutamate or AP4 with vehicle versus B16
# [6] = wild-type, serial 3-fold dilutions
# T4 sequence (P41594 21-1212): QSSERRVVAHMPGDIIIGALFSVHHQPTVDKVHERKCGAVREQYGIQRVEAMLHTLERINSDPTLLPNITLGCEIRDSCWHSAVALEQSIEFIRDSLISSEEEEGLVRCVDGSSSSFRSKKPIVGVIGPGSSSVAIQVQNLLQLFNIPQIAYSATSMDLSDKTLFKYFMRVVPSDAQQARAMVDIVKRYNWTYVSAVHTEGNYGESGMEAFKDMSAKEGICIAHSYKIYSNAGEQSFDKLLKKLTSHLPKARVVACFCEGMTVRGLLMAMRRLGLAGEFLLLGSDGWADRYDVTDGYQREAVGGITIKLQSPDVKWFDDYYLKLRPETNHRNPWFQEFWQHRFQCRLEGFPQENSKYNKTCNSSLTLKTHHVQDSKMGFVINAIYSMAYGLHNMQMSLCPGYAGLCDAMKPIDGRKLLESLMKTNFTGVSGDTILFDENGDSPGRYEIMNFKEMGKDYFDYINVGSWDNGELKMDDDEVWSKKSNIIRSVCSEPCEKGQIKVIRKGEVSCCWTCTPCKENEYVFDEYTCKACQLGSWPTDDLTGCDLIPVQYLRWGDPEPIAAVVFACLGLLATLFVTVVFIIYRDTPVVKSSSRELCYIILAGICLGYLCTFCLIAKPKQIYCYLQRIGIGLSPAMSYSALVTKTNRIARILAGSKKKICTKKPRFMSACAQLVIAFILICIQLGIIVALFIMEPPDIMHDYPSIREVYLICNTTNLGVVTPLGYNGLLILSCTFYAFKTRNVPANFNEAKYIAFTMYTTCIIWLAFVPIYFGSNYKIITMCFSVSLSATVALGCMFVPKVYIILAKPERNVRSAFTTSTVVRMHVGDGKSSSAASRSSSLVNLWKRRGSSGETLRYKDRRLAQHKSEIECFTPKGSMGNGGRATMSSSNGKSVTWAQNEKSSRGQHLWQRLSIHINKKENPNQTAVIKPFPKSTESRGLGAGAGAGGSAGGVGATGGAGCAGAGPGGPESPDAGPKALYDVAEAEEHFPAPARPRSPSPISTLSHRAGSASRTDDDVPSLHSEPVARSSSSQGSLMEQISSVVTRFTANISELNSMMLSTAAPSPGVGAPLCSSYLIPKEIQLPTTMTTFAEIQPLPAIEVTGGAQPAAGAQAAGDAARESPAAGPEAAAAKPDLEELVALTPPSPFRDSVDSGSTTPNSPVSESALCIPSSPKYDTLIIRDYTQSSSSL
# T3 sequence (Q13255 19-1194): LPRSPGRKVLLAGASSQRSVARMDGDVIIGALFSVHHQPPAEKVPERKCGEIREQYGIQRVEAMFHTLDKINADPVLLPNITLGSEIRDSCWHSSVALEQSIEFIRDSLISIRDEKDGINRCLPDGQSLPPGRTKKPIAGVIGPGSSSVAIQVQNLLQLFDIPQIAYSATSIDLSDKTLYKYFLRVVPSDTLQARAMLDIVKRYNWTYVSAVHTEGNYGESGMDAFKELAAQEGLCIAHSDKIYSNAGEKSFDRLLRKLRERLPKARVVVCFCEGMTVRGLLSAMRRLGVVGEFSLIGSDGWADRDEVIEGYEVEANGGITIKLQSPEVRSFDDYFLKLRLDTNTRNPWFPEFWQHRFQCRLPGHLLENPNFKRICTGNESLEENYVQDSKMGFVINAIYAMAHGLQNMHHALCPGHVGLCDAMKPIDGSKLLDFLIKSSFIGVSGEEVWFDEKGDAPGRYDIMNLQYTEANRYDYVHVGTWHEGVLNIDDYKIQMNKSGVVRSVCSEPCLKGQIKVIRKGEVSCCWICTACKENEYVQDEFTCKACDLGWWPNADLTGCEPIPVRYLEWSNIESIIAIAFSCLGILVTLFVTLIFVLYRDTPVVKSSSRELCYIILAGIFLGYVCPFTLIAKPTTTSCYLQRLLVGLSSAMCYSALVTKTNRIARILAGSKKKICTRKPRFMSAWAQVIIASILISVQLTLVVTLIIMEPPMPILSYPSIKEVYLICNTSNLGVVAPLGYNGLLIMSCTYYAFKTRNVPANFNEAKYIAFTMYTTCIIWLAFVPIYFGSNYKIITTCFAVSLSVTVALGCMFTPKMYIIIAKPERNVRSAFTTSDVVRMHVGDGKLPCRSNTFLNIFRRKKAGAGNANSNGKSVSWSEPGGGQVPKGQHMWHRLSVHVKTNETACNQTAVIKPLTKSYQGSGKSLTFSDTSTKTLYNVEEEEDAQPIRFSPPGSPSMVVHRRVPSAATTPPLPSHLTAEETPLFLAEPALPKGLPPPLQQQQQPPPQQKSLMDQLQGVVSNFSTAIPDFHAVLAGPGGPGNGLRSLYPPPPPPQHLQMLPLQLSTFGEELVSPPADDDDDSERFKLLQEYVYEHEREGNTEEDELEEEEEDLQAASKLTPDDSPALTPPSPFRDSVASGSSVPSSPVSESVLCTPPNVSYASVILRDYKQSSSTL
# T9 sequence (P36888 564-993): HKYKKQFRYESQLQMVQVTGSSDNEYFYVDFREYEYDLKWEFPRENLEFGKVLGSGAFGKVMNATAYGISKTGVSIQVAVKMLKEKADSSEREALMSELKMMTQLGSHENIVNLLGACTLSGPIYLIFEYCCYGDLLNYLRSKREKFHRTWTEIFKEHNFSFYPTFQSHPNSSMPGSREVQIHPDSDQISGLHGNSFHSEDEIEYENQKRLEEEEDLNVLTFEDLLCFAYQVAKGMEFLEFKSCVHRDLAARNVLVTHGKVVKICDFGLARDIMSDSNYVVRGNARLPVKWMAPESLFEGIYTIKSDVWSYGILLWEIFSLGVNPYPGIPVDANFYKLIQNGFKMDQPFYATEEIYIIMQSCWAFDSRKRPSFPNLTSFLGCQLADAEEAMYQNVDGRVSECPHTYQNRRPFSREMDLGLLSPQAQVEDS
# T7 sequence (Q14416 19-872): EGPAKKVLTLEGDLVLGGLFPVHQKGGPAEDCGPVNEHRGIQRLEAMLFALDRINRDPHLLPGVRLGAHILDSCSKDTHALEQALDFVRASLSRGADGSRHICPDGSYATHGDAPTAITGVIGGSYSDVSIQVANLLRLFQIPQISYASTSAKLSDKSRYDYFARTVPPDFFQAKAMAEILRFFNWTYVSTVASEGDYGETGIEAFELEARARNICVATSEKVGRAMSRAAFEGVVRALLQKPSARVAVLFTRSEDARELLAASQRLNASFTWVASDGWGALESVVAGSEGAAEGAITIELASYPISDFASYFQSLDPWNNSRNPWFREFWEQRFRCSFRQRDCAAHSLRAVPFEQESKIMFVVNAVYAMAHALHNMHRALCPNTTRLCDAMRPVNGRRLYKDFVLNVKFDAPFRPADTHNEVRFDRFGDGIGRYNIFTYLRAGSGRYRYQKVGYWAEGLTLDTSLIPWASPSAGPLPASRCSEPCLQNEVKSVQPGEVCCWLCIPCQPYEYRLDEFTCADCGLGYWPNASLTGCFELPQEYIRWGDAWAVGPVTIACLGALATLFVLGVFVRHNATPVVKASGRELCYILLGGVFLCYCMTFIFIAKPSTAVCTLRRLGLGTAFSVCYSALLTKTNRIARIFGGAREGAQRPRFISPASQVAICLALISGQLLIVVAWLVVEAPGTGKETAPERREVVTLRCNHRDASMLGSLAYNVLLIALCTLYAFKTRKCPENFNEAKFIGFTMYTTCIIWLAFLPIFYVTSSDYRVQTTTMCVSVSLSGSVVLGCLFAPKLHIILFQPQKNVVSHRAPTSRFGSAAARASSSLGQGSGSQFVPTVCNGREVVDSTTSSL
# T6 sequence (Q14833 33-912): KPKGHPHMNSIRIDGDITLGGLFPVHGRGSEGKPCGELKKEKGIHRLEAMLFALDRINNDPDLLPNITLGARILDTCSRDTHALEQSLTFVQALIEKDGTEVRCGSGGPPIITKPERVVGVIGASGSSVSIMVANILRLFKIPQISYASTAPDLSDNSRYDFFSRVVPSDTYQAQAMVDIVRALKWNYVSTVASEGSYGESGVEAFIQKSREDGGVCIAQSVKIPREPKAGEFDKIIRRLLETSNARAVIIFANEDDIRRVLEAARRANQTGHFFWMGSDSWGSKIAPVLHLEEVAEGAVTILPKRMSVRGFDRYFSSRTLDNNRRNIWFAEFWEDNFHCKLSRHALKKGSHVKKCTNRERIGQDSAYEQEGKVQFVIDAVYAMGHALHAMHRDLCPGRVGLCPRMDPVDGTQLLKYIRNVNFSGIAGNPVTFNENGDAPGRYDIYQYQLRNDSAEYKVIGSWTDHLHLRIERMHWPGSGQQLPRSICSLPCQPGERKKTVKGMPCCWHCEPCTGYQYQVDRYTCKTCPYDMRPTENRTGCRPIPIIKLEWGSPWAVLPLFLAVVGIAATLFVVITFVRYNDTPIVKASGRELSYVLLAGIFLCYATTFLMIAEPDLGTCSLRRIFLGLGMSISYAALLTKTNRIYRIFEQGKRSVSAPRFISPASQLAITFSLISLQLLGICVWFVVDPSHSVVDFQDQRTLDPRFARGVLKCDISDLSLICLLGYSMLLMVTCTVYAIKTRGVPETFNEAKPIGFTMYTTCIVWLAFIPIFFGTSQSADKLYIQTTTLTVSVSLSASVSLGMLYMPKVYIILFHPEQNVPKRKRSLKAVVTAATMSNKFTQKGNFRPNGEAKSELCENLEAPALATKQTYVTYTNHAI
# Chain of dopamine receptor D4 (P21917 whole entry): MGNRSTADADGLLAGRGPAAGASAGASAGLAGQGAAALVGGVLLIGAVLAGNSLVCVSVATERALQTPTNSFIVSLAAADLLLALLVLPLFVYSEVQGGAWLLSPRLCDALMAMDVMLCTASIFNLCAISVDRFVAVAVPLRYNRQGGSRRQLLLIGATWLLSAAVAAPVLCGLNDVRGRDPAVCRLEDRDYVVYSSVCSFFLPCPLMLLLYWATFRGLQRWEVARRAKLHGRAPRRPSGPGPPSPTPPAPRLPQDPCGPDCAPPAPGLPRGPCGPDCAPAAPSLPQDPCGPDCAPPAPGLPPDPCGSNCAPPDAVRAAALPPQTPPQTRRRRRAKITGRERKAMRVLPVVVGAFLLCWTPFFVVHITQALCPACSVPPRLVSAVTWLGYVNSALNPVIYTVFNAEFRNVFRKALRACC
compound,measurement,setting,value
O=C(Nc1ccccc1C(=O)O)c1ccc(Br)c(S(=O)(=O)N2CCCCC2)c1 [I10],Ki,PPAR-γ,1.3 µM
Cc1nc(N2CCOCC2)c2oc3ccccc3c2n1 [J6],Ki,PI3K p110α,4.6 µM
O=C1NC(=O)/C(=C\c2ccc(-c3cccc(Br)c3)o2)S1 [L10],Ki,PI3K p110α,2.9 µM
O=C(CN1CCN(c2ccccc2)CC1)Nc1cc(C(F)(F)F)ccc1Cl [G7],Ki,dopamine receptor D4,1.9 µM
CC12C(=O)N(c3ccc(Cl)c(Cl)c3)C(=O)C1C1C=CC2C1 (centres unmarked) [G6],Ki,androgen receptor,0.0086 µM
Cc1cc(C)c2c(N)c(C(=O)Nc3ccccn3)sc2n1 [B16],% agonism,MGLUR1a; [4],-4%
same,inhibition at 10 µM,MGLUR1a; [5],24%
same,% agonism,"MGLUR5; 10 µM B16, normalized to the maximum response of cells treated with 1 mM glutamate or 0.1 mM AP4 alone",-14%
same,inhibition at 10 µM,"MGLUR5; 10 µM B16, percent difference in maximum activity of cells treated with glutamate or AP4 with vehicle versus B16",11%
same,Ki,MGLUR5; Figure 2,> 30 µM
same,% agonism,MGLUR6; [4],13%
same,inhibition at 10 µM,MGLUR6; [5],-17%
same,% agonism,MGLUR4; [4],-8%
same,inhibition at 10 µM,MGLUR4; [5],4%
same,% agonism,MGLUR2; [4],0%
same,inhibition at 10 µM,MGLUR2; [5],12%
same,increase in pharyngeal pumping,wild-type C. elegans,7%–12%
same,exposure time after which the feeding elevating effect was notable,wild-type C. elegans,≤ 1 h
same,effect on the pharyngeal pumping rate,wild-type C. elegans; wild-type,increased
same,Ki,mglur-8,9.8 µM
same,Nile Red staining,C. elegans,decreased
same,% agonism,MGLUR8; [4],-3%
same,% inhibition,MGLUR8; [5],49%
same,Pharmacological relationship,[1],antagonist
Cc1sc(NC(=O)c2ccccc2Br)c(C(N)=O)c1C [D20],increase in pharyngeal pumping,wild-type C. elegans,7%–12%
same,exposure time after which the feeding elevating effect was notable,wild-type C. elegans,≤ 1 h
same,EC50,wild-type C. elegans; [6],0.6 µM
same,effect on the pharyngeal pumping rate,wild-type C. elegans; wild-type,increased
same,Nile Red staining,C. elegans,decreased
same,Ki,"flt-3 receptor (CD135); marked with footnote d in Figure 2, 100 µM ATP, 1 h",0.169 µM
same,Pharmacological relationship,[2],antagonist
"CC[C@H](NC(=O)c1c(C)c(-c2ccccc2)nc2ccccc12)c1ccccc1 [SB222200, reference compound]",effect on feeding,"wild-type C. elegans; wild-type, 200 nM",increased feeding
CC1CCc2c(sc(NC(=O)c3cccs3)c2C(N)=O)C1 (centres unmarked) [K9],effect on feeding rate,wild-type C. elegans; [6],dose-dependent increase
same,activity on the predicted mammalian target Flt-3 kinase in vitro,flt-3 receptor (CD135); Table S1 (not readable),fail to modulate
COc1ccc(N(CC(=O)NCc2ccco2)S(=O)(=O)c2ccccc2)cc1Cl [F15],increase in pharyngeal pumping,wild-type C. elegans,7%–12%
same,exposure time after which the feeding elevating effect was notable,wild-type C. elegans,≤ 1 h
same,EC50,wild-type C. elegans; [6],0.4 µM
same,effect on the pharyngeal pumping rate,wild-type C. elegans; wild-type,increased
same,Nile Red staining,C. elegans,decreased
same,Ki,oxytocin receptor,1.8 µM
same,Pharmacological relationship,[3],antagonist
